# Results as given in ChEMBL document CHEMBL3576799, “Aranciamycins I and J, Antimycobacterial Anthracyclines from an Australian Marine-Derived Streptomyces sp” (J Nat Prod, 2015).
# System: Mycobacterium tuberculosis
# Assay: Antimycobacterial activity against Mycobacterium bovis BCG
# Assay type: functional, organism-based
# Conditions: variant bovis BCG
SMILES,IC50 [nM],MIC [µM]
CO[C@H]1[C@H](O[C@@H]2c3c(cc4c(c3O)C(=O)c3c(O)cccc3C4=O)C(=O)[C@@](C)(O)[C@H]2OC)O[C@@H](C)[C@H](O)[C@H]1O [ARANCIAMYCIN],1700,30
CO[C@H]1[C@H](O[C@H]2C[C@](C)(O)C(=O)c3cc4c(c(O)c32)C(=O)c2c(O)cccc2C4=O)O[C@@H](C)[C@H](O)[C@H]1O,700,10
CO[C@H]1[C@H](O[C@H]2C[C@](C)(O)Cc3cc4c(c(O)c32)C(=O)c2c(O)cccc2C4=O)O[C@@H](C)[C@H](O)[C@H]1O,1100,30
C[C@@H]1O[C@@H](O[C@H]2C[C@](C)(O)Cc3cc4c(c(O)c32)C(=O)c2c(O)cccc2C4=O)[C@H](O)[C@H](O)[C@H]1O,800,10
